In patent US9801955B2, “Methods and compositions for detecting drusen and predicting age-related macular degeneration” (University of Maryland, Baltimore, priority 2012, dated 2017):

Assays:
[1] = Fluorescent staining of HAP chromatographic medium as a model for drusen; assay type: binding
Excerpt: (§1) Hydroxyapatite Bio-Gel HTP resin (Bio-Rad catalog 130-0420) (Bio-Red Laboratories, Inc., Hercules, Calif.) was used as a model for hydroxyapatite in deposits for purposes of collecting emission spectra; stained resin particles were suspended in propylene glycol for fluorescence spectroscopy. Calcium phosphate tribasic (34-40% Ca basis, cat no. C5267), Calcium hydrogen phosphate dihydrate (dibasic, 98%, cat. No. 307653) and calcium phosphate monobasic monohydrate (>85%, cat no. 21053) were all products of Sigma Aldrich and used without further purification. Fluorescence spectra were obtained on a Spectronics AB-2 spectrophotofluorometer with a high pressure xenon lamp.
(§2) The dibasic form of calcium phosphate is listed as 98% pure. […] IRDye 680RD BoneTag was also tested on HAP and drusen. This probe is a long wavelength excitable fluorophore coupled to tetracycline designed as an in vivo bone stain (J. L. Kovar et al., 2011 Anal. Biochem. 416(2):167-173).

[2] = Staining of tribasic calcium phosphate; assay type: binding; details: compared with HAP
Excerpt: as §1, §2

[3] = Staining of dibasic calcium phosphate (Example 1); assay type: binding; details: compared with HAP
Excerpt: as §1, §2

[4] = Staining of monobasic calcium phosphate; assay type: binding; details: salt slightly soluble
Excerpt: as §1, §2

[5] = Staining of insoluble zinc phosphate (Example 1); assay type: binding
[6] = Fluorescent staining of cadaver posterior retinas (sub-RPE deposits, drusen); set-up: species or system human; details: for increase in apparent intensity over the fluorescent background of the sub-RPE alone: cadaver posterior retinas
[7] = Staining of the elastin layer of the Bruch's membrane in cadaver retina; set-up: species or system human
[8] = Fluorescent staining of authentic hydroxyapatite, emission spectra (Example 2, FIG. 6); assay type: binding; details: for fluorescence of stained hydroxyapatite: 100 mg salt in 25 mM MOPS pH 7.5, 20 minutes at room temperature, suspended in propylene glycol; for specificity for HAP in comparison to dibasic calcium phosphate or zinc phosphate: FIG. 6
Description: (§3) Briefly, the insoluble salts (100 mg in 1 ml 25 mM MOPS pH 7.5 buffer) were stained with 100 ul of 1 mg/ml dye (0.02 nmol/uL of the Bone Tag 680 RD dye) in buffer for 20 minutes at room temperature, followed by two rinses with buffer. Approximately 100 ul of the precipitate (a slurry) was suspended in propylene glycol. Fluorescence emission spectra shown in FIG. 6 were obtained at the excitation wavelengths described in the legend. […] Sub-RPE deposits can be readily identified based on their characteristic faint autofluorescence at excitation: 488 nm and emission: 525 nm).

[9] = Fluorescent staining of dibasic calcium phosphate, emission spectra (Example 2, FIG. 6); assay type: binding; details: 25 mM MOPS pH 7.5
Description: as §3

[10] = Fluorescent staining of zinc phosphate, specificity control (Example 2, FIG. 6); assay type: binding; details: 25 mM MOPS pH 7.5
Description: as §3

[11] = Staining of HAP spherules in sub-RPE deposits in flat mounts of cadaver tissues (FIG. 7); set-up: species or system human; details: for staining of HAP spherules in sub-RPE deposits: flat mounts of cadaver tissues; for staining pattern in retinal tissue: human cadaveric eyes, FIG. 7
Description: The protocol of the study adhered to the tenets of the Declaration for Helsinki regarding research involving human tissue.
as §3

[12] = Nile Red staining of neutral lipids in unfixed whole mounts with drusen on Bruch's membrane (FIG. 8); set-up: species or system human
Description: Flat mounts were stained with 1 mg/ml Alizarin Red S (Sigma-Aldrich; Ex: 532 nm Em:620 nm), 20 μM Bone-Tag 680RD (Li-Cor; Ex: 620 nm Em:680 nm), 1 mg/ml tetracycline (Sigma-Aldrich; Ex: 405 nm Em: 570 nm), and 1 mg/ml Xylenol Orange (Sigma-Aldrich; Ex: 532 nm Em:570 nm) in aqueous buffer for 20 minutes at room temperature. Nile Red (Invitrogen, Carsbad, Calif.; Ex: 532 nm Em: 620 nm) was first dissolved in acetone and then diluted in aqueous buffer to 3.5 mg/ml and tissues were incubated for 20 minutes at room temperature.
Without being bound by theory or mechanism, HAP may form on the surface of an existing structure at the RPE/BM interface, for example lipid droplets or lipoproteins. […] The composition of the inner core of HAP spherules was analyzed by mass spectrometric imaging (FIG. 3). […] The native chemical composition was then analysed with time-of-flight secondary ion mass spectrometry (TOF-SIMS), which is well suited, as it combines high lateral resolution (˜250 nm) and very high sensitivity in the range of parts per million, and can image molecular ions and organic molecules over a wide mass range. […] The m/e 184 ion (i.e. from the phosphocholine headgroup fragment from phospholipids) is readily detected by TOF-SIMS as a characteristic marker, so its absence from the spherules implies a strong predominance of cholesterol and/or cholesteryl esters within the spherules.

SMILES | change in fluorescence quantum yield upon binding HAP [1] | fluorescent staining of HAP (fluorescence emission when bound) ([1]; HAP chromatographic medium, stained, rinsed in distilled water, suspended in propylene glycol) | staining of tribasic calcium phosphate [2] | staining of dibasic calcium phosphate [3] | staining of monobasic calcium phosphate [4] | adherence of stain to insoluble zinc phosphate [5] | contrast compared with tetracycline ([6]; cadaver posterior retina, excitation 550-600 nm, emission 650 nm) | increase in apparent intensity over the fluorescent background of the sub-RPE alone [6] | staining of the elastin layer of the Bruch's membrane [7] | fluorescence of stained hydroxyapatite [8] | specificity for HAP in comparison to dibasic calcium phosphate or zinc phosphate [8] | staining of dibasic calcium phosphate [9] | staining of zinc phosphate [10] | staining of HAP spherules in sub-RPE deposits [11] | staining pattern in retinal tissue [11] | labelling of lipid inclusions in drusen [12]
O=C1c2ccccc2C(=O)c2c1cc(S(=O)(=O)O)c(O)c2O [Alizarin Red S, 9,10-dihydro-3,4-dihydroxy-9,10-dioxo-2-anthracenesulfonic acid] | substantial increase | bright fluorescence emission when bound to the HAP that did not rinse off despite repeated washes with buffer | less well than HAP | less well than HAP | no staining was evident | did not appear that either stain was adhered | two-fold | fifteen-fold | No staining | only significant fluorescence from stained specimens is observed with hydroxyapatite | specific for HAP | did not stain significantly | did not stain significantly | effectively stained spherules | very similar staining patterns | –
CCN(CC)c1ccc2nc3c4ccccc4c(=O)cc-3oc2c1 [Nile Red] | – | – | – | – | – | – | – | – | – | – | – | – | – | – | – | labelled a large number of spherical inclusions
CN(C)[C@@H]1C(O)=C(C(N)=O)C(=O)[C@@]2(O)C(O)=C3C(=O)c4c(O)cccc4[C@@](C)(O)[C@H]3C[C@@H]12.Cl [Tetracycline HCl, Tetracycline hydrochloride] | – | – | less well than HAP | less well than HAP | – | – | – | eight-fold | – | – | – | – | – | – | – | –
Cc1cc(C2(c3cc(C)c(O)c(CN(CC(=O)O)CC(=O)O)c3)OS(=O)(=O)c3ccccc32)cc(CN(CC(=O)O)CC(=O)O)c1O [Xylenol Orange] | – | – | – | – | – | – | – | – | – | only significant fluorescence from stained specimens is observed with hydroxyapatite | specific for HAP | did not stain significantly | did not stain significantly | effectively stained spherules | very similar staining patterns | –
